Structures can show the parent of a compound that is named as a salt.
Experiments:
AXL = target: T1, AXL (Homo sapiens, UniProt P30530); test: AXL autophosphorylation ELISA in A-172 cells; type: cell-based; conditions: Table 3 Cellular Activities, Gas6-stimulated, phospho-AXL ELISA
T1 construct: endogenous in cells; host or cells: A-172 glioblastoma cells (ATCC #CRL-1620)
T1 sequence (P30530 26-894): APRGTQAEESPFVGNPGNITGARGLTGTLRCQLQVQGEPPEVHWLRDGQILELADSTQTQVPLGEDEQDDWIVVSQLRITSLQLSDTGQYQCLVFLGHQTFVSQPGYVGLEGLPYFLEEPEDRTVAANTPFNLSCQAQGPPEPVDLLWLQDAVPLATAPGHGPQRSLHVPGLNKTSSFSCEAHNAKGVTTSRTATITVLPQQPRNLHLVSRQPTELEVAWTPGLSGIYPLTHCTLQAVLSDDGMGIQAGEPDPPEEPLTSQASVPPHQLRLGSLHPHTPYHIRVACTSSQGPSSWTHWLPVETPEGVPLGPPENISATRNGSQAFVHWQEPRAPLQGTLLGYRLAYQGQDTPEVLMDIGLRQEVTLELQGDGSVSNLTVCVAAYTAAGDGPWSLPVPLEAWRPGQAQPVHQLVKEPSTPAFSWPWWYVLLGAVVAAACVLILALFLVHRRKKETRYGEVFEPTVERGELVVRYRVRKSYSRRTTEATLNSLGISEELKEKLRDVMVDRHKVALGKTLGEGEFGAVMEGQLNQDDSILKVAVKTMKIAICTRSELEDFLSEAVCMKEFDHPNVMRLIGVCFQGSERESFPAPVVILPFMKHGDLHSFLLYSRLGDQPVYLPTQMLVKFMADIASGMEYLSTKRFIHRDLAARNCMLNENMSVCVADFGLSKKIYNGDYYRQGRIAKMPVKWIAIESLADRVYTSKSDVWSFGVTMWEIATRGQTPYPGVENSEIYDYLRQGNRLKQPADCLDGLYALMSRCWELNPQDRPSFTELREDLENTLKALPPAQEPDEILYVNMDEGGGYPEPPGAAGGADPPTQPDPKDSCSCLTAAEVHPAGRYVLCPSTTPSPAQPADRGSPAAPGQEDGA
Protocol: A-172 glioblastoma cells (ATCC #CRL-1620) were seeded at 2.5×10^5 cells/well onto 24-well plates (Greiner #662165), in DMEM (Thermo Fisher #11995-040) containing 10% FBS (Thermo Fisher #26140-079), 1% MEM NEAA (Thermo Fisher #11140-050), 1% GlutaMax (Thermo Fisher #35050-061), and 1% Penicillin Streptomycin (Thermo Fisher #15140-122). A-172 cells were incubated at 37° C., 5% CO2 for 24 h and then starved for 24 h in serum-free medium. Test compounds were serially diluted to produce an 8-point dose curve in fresh serum-free medium to a final concentration of 0.3% DMSO (vehicle) and added to the cells and incubated for 1 h. Cells were then stimulated with 1 μg/mL recombinant human Gas6 (R&D Systems #885-GSB-500) for 15 min, washed with cold PBS, and immediately lysed with 150 μL of cold 1× lysis buffer [20 mM Tris, 137 mM sodium chloride, 2 mM EDTA, 10% glycerol, 1% NP-40 alternative, 1 mM activated sodium orthovanadate, 1 mM PefaBloc SC (Sigma-Aldrich #11429868001), protease/phosphatase inhibitor tablet (Thermo Fisher #A32959)]. Lysates were collected and 100 μL/well added into the human phospho-AXL DuoSet IC ELISA (R&D Systems #DYC2228-2). Assay was performed according to manufacturer's instructions and sample phospho-AXL concentrations were extrapolated using human phospho-AXL control (R&D Systems #841645) as a standard. Positive control wells (100% activity) contained Gas6-stimulated, DMSO-treated cell lysates. Negative control wells (0% activity) contained Gas6-stimulated, reference inhibitor-treated cell lysates. IC50 values were calculated by nonlinear regression analysis using a 4-parameter logistic curve fit in ActivityBase XE (IDBS).

Met = Met (Homo sapiens, UniProt P08581); test: Met autophosphorylation ELISA in PC-3 cells; type: cell-based; set-up: endogenous in cells; host or cells: PC-3 prostate cancer cells (ATCC #CRL-1435); conditions: Table 3 Cellular Activities, HGF-stimulated, phospho-Met ELISA, read-out: c-Met IC50
Chain of Met (P08581 25-1390): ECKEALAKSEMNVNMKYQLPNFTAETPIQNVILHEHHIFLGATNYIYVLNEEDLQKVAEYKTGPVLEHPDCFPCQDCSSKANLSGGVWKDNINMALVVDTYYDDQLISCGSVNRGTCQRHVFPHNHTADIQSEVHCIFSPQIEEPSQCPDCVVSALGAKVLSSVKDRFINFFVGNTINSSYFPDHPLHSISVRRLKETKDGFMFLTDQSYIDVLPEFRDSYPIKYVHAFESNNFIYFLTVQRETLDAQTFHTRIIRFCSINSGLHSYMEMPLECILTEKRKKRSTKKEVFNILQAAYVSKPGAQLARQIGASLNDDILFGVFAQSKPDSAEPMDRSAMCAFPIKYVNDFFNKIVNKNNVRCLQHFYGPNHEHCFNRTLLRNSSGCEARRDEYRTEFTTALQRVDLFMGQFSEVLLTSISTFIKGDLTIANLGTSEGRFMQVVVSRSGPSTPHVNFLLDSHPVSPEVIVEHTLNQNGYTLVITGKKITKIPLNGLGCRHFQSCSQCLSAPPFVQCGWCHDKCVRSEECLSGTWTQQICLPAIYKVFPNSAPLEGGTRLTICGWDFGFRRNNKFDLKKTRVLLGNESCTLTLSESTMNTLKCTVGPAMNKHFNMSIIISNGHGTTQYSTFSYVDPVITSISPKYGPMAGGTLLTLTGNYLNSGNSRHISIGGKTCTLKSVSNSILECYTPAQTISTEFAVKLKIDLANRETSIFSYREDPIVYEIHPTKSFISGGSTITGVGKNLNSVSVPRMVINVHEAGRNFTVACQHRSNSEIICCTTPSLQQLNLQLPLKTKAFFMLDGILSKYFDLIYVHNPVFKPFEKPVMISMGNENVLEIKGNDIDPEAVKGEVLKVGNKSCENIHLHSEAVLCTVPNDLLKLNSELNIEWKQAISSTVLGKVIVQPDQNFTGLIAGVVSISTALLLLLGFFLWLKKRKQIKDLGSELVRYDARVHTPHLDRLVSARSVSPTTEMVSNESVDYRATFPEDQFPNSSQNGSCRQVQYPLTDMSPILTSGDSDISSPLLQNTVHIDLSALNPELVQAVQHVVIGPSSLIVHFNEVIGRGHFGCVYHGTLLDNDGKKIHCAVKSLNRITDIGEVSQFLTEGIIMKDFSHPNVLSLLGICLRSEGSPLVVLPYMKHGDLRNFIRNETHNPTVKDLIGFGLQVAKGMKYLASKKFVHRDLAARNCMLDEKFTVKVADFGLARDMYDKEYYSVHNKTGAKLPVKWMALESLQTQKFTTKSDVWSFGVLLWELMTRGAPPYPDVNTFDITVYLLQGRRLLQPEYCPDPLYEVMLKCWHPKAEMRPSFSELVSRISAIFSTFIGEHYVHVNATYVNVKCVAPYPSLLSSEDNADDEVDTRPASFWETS
Summary of the method: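 IC50 derived by 4-parameter logistic regression of phospho-Met (panTyr) sandwich ELISA signal, scaled between HGF-stimulated DMSO and reference-inhibitor lysates. PC-3 cells, serum-starved 3 h, received an 8-point compound series (0.3% DMSO) for 1 h before 10 min stimulation with 100 ng/mL human HGF.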

| SMILES | IC50 (AXL) [nM] | IC50 (Met) [nM] |
| --- | --- | --- |
| COc1cc2nccc(Oc3ccc(NC(=O)c4cc(C(C)=O)c(C)n(-c5ccco5)c4=O)cc3)c2nc1OC [Compound 237, 5-Acetyl-N-[4-[(6,7-dimethoxy-1,5-naphthyridin-4-yl)oxy]phenyl]-1-(furan-2-yl)-6-methyl-2-oxopyridine-3-carboxamide] | ≤ 100 | 300 to 1000 |
| COc1cc2nccc(Oc3ccc(NC(=O)c4cnc(C)c(-c5ccco5)n4)cc3F)c2nc1OC [Compound 269, N-[4-[(6,7-Dimethoxy-1,5-naphthyridin-4-yl)oxy]-3-fluorophenyl]-6-(furan-2-yl)-5-methylpyrazine-2-carboxamide] | 300 to 1000 | ≤ 100 |
| COc1cc2nccc(Oc3ccc(NC(=O)c4c5n(cc(-c6ccco6)c4=O)CCOC5)cc3)c2nc1OC [Compound 298, N-[4-[(6,7-Dimethoxy-1,5-naphthyridin-4-yl)oxy]phenyl]-7-(furan-2-yl)-8-oxo-3,4-dihydro-1H-pyrido[2,1-c][1,4]oxazine-9-carboxamide] | ≤ 100 | 300 to 1000 |
| COc1ccc2nccc(Oc3ccc(NC(=O)c4ccc(C)n(-c5ccc(F)cn5)c4=O)cc3F)c2n1 [Compound 47, N-[3-Fluoro-4-[(6-methoxy-1,5-naphthyridin-4-yl)oxy]phenyl]-1-(5-fluoropyridin-2-yl)-6-methyl-2-oxopyridine-3-carboxamide] | ≤ 100 | ≤ 100 |
| Cc1ccc(C(=O)Nc2ccc(Oc3ccnc4cnc(Cl)cc34)c(F)c2)c(=O)n1-c1ccc(F)cn1 [Compound 54A, N-[4-[(6-Chloro-1,7-naphthyridin-4-yl)oxy]-3-fluorophenyl]-1-(5-fluoropyridin-2-yl)-6-methyl-2-oxopyridine-3-carboxamide] | 100 to 300 | ≤ 100 |
| COc1cc(-n2c(C)ccc(C(=O)Nc3ccc(Oc4ccnc5cc(OC)c(OC)nc45)c(F)c3)c2=O)ccn1 [Compound 226, N-[4-[(6,7-Dimethoxy-1,5-naphthyridin-4-yl)oxy]-3-fluorophenyl]-1-(2-methoxypyridin-4-yl)-6-methyl-2-oxopyridine-3-carboxamide] | ≤ 100 | ≤ 100 |
| COc1cc2nccc(Oc3ccc(NC(=O)c4cn(CCF)c(C)c(-c5cccs5)c4=O)cc3F)c2nc1OC [Compound 327, N-[4-[(6,7-Dimethoxy-1,5-naphthyridin-4-yl)oxy]-3-fluorophenyl]-1-(2-fluoroethyl)-6-methyl-4-oxo-5-thiophen-2-ylpyridine-3-carboxamide] | ≤ 100 | ≤ 100 |
| COc1cc2nccc(Oc3ccc(NC(=O)c4c5n(cc(-c6ccc(C)s6)c4=O)CCOC5)cc3)c2nc1OC [Compound 305, N-[4-[(6,7-Dimethoxy-1,5-naphthyridin-4-yl)oxy]phenyl]-7-(5-methylthiophen-2-yl)-8-oxo-3,4-dihydro-1H-pyrido[2,1-c][1,4]oxazine-9-carboxamide] | ≤ 100 | ≤ 100 |
| COc1cc2nccc(Oc3ccc(NC(=O)c4c5n(cc(-c6cccs6)c4=O)CCOC5)cc3F)c2nc1OC [Compound 309, N-[4-[(6,7-Dimethoxy-1,5-naphthyridin-4-yl)oxy]-3-fluorophenyl]-8-oxo-7-thiophen-2-yl-3,4-dihydro-1H-pyrido[2,1-c][1,4]oxazine-9-carboxamide] | ≤ 100 | ≤ 100 |
| COc1cc2nccc(Oc3ccc(NC(=O)c4ccc(C)n(-c5ccc(F)cn5)c4=O)cc3)c2nc1OC [Compound 44, N-[4-[(6,7-Dimethoxy-1,5-naphthyridin-4-yl)oxy]phenyl]-1-(5-fluoropyridin-2-yl)-6-methyl-2-oxopyridine-3-carboxamide] | ≤ 100 | ≤ 100 |
| COc1cc2nccc(Oc3ccc(NC(=O)c4cccn(-c5cc[n+]([O-])cc5)c4=O)cc3F)c2nc1OC [Compound 247, N-[4-[(6,7-Dimethoxy-1,5-naphthyridin-4-yl)oxy]-3-fluorophenyl]-1-(1-oxidopyridin-1-ium-4-yl)-2-oxopyridine-3-carboxamide hydrochloride] | 300 to 1000 | ≤ 100 |
| COc1cc2nccc(Oc3ccc(NC(=O)c4nccn(-c5ccc(F)cn5)c4=O)cc3F)c2nc1OC [Compound 246, N-[4-[(6,7Dimethoxy-1,5-naphthyridin-4-yl)oxy]-3-fluorophenyl]-4-(5-fluoropyridin-2-yl)-3-oxopyrazine-2-carboxamide] | ≤ 100 | ≤ 100 |
| COc1cc2nccc(Oc3ccc(NC(=O)c4c(C)ncc(-c5cccnc5)c4O)cc3F)c2nc1OC [Compound 228, N-[4-[(6,7-Dimethoxy-1,5-naphthyridin-4-yl)oxy]-3-fluorophenyl]-4-hydroxy-2-methyl-5-pyridin-3-ylpyridine-3-carboxamide] | ≤ 100 | ≤ 100 |
| COc1cc2nccc(Oc3ccc(NC(=O)c4c(C)nc(C)c(-c5ccc(F)cn5)c4O)cc3F)c2nc1OC [Compound 218, N-[4-[(6,7-Dimethoxy-1,5-naphthyridin-4-yl)oxy]-3-fluorophenyl]-5-(5-fluoropyridin-2-yl)-4-hydroxy-2,6-dimethylpyridine-3-carboxamide] | ≤ 100 | ≤ 100 |
| CCOc1ccn(-c2ccc(F)cn2)c(=O)c1C(=O)Nc1ccc(Oc2ccnc3cc(OC)c(OC)nc23)c(F)c1 [Compound 243, N-[4-[(6,7-dimethoxy-1,5-naphthyridin-4-yl)oxy]-3-fluorophenyl]-4-ethoxy-1-(5-fluoropyridin-2-yl)-2-oxopyridine-3-carboxamide] | ≤ 100 | ≤ 100 |
| COc1cc2nccc(Oc3ccc(NC(=O)c4cc(C(C)=O)c(C)n(-c5ccoc5)c4=O)cc3F)c2nc1OC [Compound 235, 5-Acetyl-N-[4-[(6,7-dimethoxy-1,5-naphthyridin-4-yl)oxy]-3-fluorophenyl]-1-(furan-3-yl)-6-methyl-2-oxopyridine-3-carboxamide] | ≤ 100 | ≤ 100 |
| COc1cc2nccc(Oc3ccc(NC(=O)c4c(C)cc(C)n(-c5ccc(F)cn5)c4=O)cc3)c2nc1OC [Compound 245, N-[4-[(6,7-Dimethoxy-1,5-naphthyridin-4-yl)oxy]phenyl]-1-(5-fluoropyridin-2-yl)-4,6-dimethyl-2-oxopyridine-3-carboxamide] | ≤ 100 | ≤ 100 |
| COc1cnc2c(Oc3ccc(NC(=O)c4cc(C(C)=O)c(C)n(-c5ccoc5)c4=O)cc3F)ccnc2c1 [Compound 240, 5-Acetyl-N-[3-fluoro-4-[(7-methoxy-1,5-naphthyridin-4-yl)oxy]phenyl]-1-(furan-3-yl)-6-methyl-2-oxopyridine-3-carboxamide] | ≤ 100 | 300 to 1000 |
| COc1cc2nccc(Oc3ccc(NC(=O)c4cnc(C)c(-c5cccs5)c4O)cc3)c2nc1OC [Compound 256, N-[4-[(6,7-Dimethoxy-1,5-naphthyridin-4-yl)oxy]phenyl]-4-hydroxy-6-methyl-5-thiophen-2-ylpyridine-3-carboxamide] | ≤ 100 | ≤ 100 |

Reference: patent US20230151003A1, “COMPOUNDS AND METHODS OF USE” (Exelixis, Inc., priority 2020, published 2023)
